Reference: article doi:10.1101/2025.10.27.684712v1, “Structure-guided development of a potent human B^0AT1 inhibitor effective in a mouse model of phenylketonuria” (biorxiv, 2025)

How the values were obtained:
[1] = target: T1, hB^0AT1-ACE2 complex (Homo sapiens, UniProt Q695T7); assay: binding to crude membranes, filtration and LC-MS/MS
T1 construct: gene SLC6A19; wild type; N-terminal FLAG on B0AT1, Strep-tag after ACE2 signal peptide; FreeStyle 293-F; with Angiotensin-converting enzyme 2

[2] = target: T2, mB^0AT1 (mouse SLC6A19) co-expressed with mouse Collectrin (Mus musculus, UniProt Q9D687); assay: inhibition of d5-phenylalanine uptake, LC-MS/MS; format: cell-based
T2 construct: mSLC6A19-T2A-mCollectrin synthetic construct, doxycycline-inducible in JTREx-CHO cells; with Collectrin
T2 sequence (Q9D687 1-634): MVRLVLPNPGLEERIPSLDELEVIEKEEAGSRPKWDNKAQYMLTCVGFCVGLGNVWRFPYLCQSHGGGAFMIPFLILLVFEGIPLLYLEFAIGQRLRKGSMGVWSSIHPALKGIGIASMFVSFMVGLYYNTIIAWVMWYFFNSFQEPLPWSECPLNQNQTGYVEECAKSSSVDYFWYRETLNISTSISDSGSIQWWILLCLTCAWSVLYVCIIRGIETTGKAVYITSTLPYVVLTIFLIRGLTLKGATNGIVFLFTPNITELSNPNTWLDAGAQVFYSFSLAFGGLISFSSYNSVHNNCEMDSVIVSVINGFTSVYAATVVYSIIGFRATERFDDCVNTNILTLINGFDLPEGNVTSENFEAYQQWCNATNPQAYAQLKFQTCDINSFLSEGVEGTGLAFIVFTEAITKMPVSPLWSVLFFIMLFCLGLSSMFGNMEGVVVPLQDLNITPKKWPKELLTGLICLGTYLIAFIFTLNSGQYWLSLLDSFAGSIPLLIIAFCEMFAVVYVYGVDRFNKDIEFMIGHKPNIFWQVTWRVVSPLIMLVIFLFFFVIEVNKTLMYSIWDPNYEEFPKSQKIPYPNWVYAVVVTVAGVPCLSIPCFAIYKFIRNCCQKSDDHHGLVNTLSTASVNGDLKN
T2 sequence (Q9ESG4 15-222 partner): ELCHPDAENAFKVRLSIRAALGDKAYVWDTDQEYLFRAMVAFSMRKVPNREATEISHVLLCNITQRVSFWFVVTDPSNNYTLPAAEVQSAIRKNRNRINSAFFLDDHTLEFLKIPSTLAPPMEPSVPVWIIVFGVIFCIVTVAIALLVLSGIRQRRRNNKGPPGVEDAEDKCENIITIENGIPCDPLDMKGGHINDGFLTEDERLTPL

[3] = target: T3, hB^0AT1 (human SLC6A19) co-expressed with human Collectrin (Homo sapiens, UniProt Q695T7); assay: inhibition of d5-phenylalanine uptake, LC-MS/MS; format: cell-based
T3 construct: hSLC6A19-T2A-hCollectrin synthetic construct, wild type, doxycycline-inducible in JTREx-CHO cells; with Collectrin
T3 sequence (Q695T7 1-634): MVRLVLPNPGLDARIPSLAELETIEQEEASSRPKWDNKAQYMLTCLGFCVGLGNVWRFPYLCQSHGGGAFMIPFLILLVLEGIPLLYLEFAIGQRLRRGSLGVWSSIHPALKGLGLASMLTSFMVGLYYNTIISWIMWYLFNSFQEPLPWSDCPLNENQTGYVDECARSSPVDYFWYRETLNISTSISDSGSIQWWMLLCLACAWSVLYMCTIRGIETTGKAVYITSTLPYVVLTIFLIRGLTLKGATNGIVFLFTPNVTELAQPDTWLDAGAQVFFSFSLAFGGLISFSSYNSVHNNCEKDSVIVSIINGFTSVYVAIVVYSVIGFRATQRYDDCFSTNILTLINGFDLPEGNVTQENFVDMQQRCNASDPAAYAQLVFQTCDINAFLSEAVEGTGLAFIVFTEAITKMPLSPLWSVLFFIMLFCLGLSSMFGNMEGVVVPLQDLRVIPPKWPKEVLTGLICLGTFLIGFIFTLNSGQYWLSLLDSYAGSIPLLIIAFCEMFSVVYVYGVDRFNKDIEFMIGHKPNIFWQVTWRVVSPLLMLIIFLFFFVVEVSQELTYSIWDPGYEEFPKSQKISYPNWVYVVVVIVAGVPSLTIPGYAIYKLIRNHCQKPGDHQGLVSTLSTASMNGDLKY
T3 sequence (Q9HBJ8 15-222 partner): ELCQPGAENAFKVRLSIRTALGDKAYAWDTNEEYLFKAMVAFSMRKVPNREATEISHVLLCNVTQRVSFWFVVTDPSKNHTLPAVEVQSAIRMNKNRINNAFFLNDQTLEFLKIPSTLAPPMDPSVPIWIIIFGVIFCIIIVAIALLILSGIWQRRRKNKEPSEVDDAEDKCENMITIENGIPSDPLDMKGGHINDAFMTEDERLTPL

[4] = target: T3, hB^0AT1 (human SLC6A19) co-expressed with human Collectrin; assay: d5-phenylalanine uptake kinetics, LC-MS/MS; format: cell-based; settings: labelled compound; 100 mM NaCl, pH 7.4, 37 °C, no inhibitor

T1 sequence (Q9BYF1 18-805 partner, one chain of several): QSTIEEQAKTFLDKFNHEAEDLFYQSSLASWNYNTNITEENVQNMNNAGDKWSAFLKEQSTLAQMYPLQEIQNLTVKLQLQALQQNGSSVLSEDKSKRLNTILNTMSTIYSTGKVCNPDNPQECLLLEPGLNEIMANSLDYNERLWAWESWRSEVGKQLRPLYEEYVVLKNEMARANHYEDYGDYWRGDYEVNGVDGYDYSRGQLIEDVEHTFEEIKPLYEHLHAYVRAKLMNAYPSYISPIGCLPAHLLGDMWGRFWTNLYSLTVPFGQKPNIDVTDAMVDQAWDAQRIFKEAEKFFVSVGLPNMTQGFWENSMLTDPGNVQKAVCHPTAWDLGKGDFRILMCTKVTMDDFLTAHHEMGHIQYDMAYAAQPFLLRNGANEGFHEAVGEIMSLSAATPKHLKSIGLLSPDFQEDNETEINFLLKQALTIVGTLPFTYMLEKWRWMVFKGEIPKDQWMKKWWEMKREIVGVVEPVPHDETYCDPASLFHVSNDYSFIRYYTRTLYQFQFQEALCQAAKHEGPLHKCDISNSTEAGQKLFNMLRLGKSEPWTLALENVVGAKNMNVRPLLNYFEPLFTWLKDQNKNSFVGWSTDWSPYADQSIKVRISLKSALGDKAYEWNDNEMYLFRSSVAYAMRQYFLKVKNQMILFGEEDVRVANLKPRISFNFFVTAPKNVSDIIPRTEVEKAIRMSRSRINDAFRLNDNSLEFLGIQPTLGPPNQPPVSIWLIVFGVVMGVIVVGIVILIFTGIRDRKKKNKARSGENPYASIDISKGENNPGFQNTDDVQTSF

Compound `O=C(/C=C/c1ccc(C(F)(F)F)cc1)NCC(=O)N1CCNC(=O)C1` [compound 3] has a Kd [1] of 47 nM, an IC50 [2] of 295 nM and an IC50 [3] of 513 nM.

Compound `CN(C)C(=O)CNC(=O)/C=C/c1ccc(C(F)(F)F)cc1` [compound 2] has a Kd [1] of 140 nM, an IC50 [2] of 1980 nM and an IC50 [3] of 5500 nM.

For d5-phenylalanine, the Km [4] was 866 ± 144 µM.

`CCNC(=O)/C=C/c1cccc(Br)c1` [compound 1, Cinromide] gave a Kd [1] of 472 nM, an IC50 [2] of over 10000 nM and an IC50 [3] of 970 nM.
